Results published in patent publication US20240132492A1, “PYRIDOPYRIMIDINE-BASED COMPOUND AND APPLICATION THEREOF” (JINAN UNIVERSITY, priority 2021, published 2024).
Each block holds one molecule with its values, some of them ahead of it.

Key:
Assay type in all cases: cell-based
AKT1 = target: T1, AKT1 (Homo sapiens, UniProt P31749); test: Western Blot, degradation of AKT1 protein in H1975-OR cells; conditions: 1000 nM, 24 hours, maximum degradation rate
T1 construct: AKT1, AKT2, and AKT3 proteins in H1975-OR cells; endogenous in cells; host or cells: H1975-OR (osimertinib-resistant H1975)
Method in brief: (§1)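 H1975-OR cells are Osimertinib-resistant H1975, adapted stepwise from 50 nM to 3 μM Osimertinib. Cells were treated with compound for 24 h, lysed, and immunoblotted with ECL detection. Band grayscale density was quantified.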

AKT2 = target: T2, AKT2 (Homo sapiens, UniProt P31751); test: Western Blot, degradation of AKT2 protein in H1975-OR cells; conditions: 1000 nM, 24 hours, maximum degradation rate
T2 construct: AKT1, AKT2, and AKT3 proteins in H1975-OR cells; endogenous in cells; host or cells: H1975-OR (osimertinib-resistant H1975)
Method in brief: as §1

H1975 = test: CCK-8 tumor cell proliferation, H1975; conditions: Homo sapiens, NCI-H1975, H1975 cells, 72 hours
Method in brief: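 2000-3000 cells/well, o/n attachment, cpd 0.000508-10 μM × 72 h, CCK-8 readout, curve-fit IC50 (mean±SD).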

H1975OR = test: CCK-8 tumor cell proliferation, H1975OR; conditions: H1975OR cells (Osimertinib resistant), 72 hours
Method in brief: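 Osimertinib-resistant H1975 cells, selected by raising Osimertinib stepwise from 50 nM to 3 μM, were treated for 72 h with compound at 0.000508–10 μM. Proliferation was read by CCK-8, and IC50 came from fitting the concentration–response curve, given as mean ± SD.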

PC-9 = test: CCK-8 tumor cell proliferation, PC-9; conditions: Homo sapiens, PC-9 cells, 72 hours
Protocol: (§2) Tumor cells (see Table 2 to Table 5) were inoculated in 96-well plates in complete culture medium (2000-3000 cells/well). After overnight incubation, the compounds with different concentrations (0.000508 μM-10 μM) were used to treat the cells separately for 72 hours. CCK-8 (Cell Counting Kit 8, Dojindo Laboratories, Kumamoto, Japan) experiment was used to evaluate cell proliferation. GraphPad Prism 5.0 software (La Jolla, CA) was used to calculate the half-maximal inhibitory concentration (IC50) values by fitting the concentration response curve. Each IC50 value was represented as an average value±SD.

A431 = test: CCK-8 tumor cell proliferation, A431; conditions: Homo sapiens, A-431, A431 cells, 72 hours
Protocol: as §2

HCC827 = test: CCK-8 tumor cell proliferation, HCC827; conditions: Homo sapiens, HCC827 cells, 72 hours
Protocol: as §2

H1299 = test: CCK-8 tumor cell proliferation, H1299; conditions: Homo sapiens, NCI-H1299, H1299 cells, 72 hours
Protocol: as §2

AKT3 = AKT3 (Homo sapiens, UniProt Q9Y243); test: Western Blot, degradation of AKT3 protein in H1975-OR cells; set-up: endogenous in cells; host or cells: H1975-OR (osimertinib-resistant H1975); conditions: 1000 nM, 24 hours, maximum degradation rate
Method in brief: as §1

MDA-MB-231 = test: CCK-8 tumor cell proliferation, MDA-MB-231; conditions: Homo sapiens, MDA-MB-231 cells, 72 hours
Protocol: as §2

MDA-MB-453 = test: CCK-8 tumor cell proliferation, MDA-MB-453; conditions: Homo sapiens, MDA-MB-453 cells, 72 hours
Protocol: as §2

BT-549 = test: CCK-8 tumor cell proliferation, BT-549; conditions: Homo sapiens, BT-549 cells, 72 hours
Protocol: as §2

Bel-7402 = test: CCK-8 tumor cell proliferation, Bel-7402; conditions: Homo sapiens, Bel-7402 cells, 72 hours
Protocol: as §2

Huh7 = test: CCK-8 tumor cell proliferation, Huh7; conditions: Homo sapiens, Huh-7, Huh7 cells, 72 hours
Protocol: as §2

HCC1937 = test: CCK-8 tumor cell proliferation, HCC1937; conditions: Homo sapiens, HCC1937 cells, 72 hours
Protocol: as §2

A549 = test: CCK-8 tumor cell proliferation, A549; conditions: Homo sapiens, A549 cells, 72 hours
Protocol: as §2

HCT116 = test: CCK-8 tumor cell proliferation, HCT116; conditions: Homo sapiens, HCT-116, HCT116 cells, 72 hours
Protocol: as §2

K562 = test: CCK-8 tumor cell proliferation, K562; conditions: Homo sapiens, K562 cells, 72 hours
Protocol: as §2

MIAPACA-2 = test: CCK-8 tumor cell proliferation, MIAPACA-2; conditions: Homo sapiens, MIA PaCa-2, MIAPACA-2 cells, 72 hours
Protocol: as §2

PANC-1 = test: CCK-8 tumor cell proliferation, PANC-1; conditions: Homo sapiens, PANC-1 cells, 72 hours
Protocol: as §2

BXPC-3 = test: CCK-8 tumor cell proliferation, BXPC-3; conditions: Homo sapiens, BXPC-3 cells, 72 hours
Protocol: as §2

Chain of AKT3 (Q9Y243 whole entry): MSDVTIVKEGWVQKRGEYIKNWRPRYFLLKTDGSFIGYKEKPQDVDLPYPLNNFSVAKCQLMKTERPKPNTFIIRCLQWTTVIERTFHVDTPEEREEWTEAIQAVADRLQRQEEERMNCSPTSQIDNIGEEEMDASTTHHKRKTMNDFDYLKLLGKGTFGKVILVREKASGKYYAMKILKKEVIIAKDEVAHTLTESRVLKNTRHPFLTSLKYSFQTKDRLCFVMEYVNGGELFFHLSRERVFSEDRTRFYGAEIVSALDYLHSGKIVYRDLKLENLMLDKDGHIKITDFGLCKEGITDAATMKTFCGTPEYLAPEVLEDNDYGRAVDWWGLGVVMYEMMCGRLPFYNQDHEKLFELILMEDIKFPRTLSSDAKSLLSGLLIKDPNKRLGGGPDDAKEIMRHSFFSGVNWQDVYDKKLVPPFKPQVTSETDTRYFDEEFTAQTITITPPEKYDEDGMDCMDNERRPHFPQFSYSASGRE
T1 sequence (P31749 whole entry): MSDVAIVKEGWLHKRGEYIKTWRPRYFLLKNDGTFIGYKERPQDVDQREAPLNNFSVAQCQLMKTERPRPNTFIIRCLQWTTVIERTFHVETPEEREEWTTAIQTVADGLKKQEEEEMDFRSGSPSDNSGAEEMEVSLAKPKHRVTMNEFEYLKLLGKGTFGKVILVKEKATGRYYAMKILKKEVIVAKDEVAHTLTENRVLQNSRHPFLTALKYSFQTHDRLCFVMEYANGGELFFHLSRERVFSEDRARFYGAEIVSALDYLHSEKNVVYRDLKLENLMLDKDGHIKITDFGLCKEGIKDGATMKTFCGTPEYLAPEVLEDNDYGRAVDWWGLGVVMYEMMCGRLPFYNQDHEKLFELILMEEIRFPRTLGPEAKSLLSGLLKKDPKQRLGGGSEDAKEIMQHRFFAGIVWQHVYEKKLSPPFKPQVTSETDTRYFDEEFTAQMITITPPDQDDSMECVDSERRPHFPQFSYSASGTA
T2 sequence (P31751 whole entry): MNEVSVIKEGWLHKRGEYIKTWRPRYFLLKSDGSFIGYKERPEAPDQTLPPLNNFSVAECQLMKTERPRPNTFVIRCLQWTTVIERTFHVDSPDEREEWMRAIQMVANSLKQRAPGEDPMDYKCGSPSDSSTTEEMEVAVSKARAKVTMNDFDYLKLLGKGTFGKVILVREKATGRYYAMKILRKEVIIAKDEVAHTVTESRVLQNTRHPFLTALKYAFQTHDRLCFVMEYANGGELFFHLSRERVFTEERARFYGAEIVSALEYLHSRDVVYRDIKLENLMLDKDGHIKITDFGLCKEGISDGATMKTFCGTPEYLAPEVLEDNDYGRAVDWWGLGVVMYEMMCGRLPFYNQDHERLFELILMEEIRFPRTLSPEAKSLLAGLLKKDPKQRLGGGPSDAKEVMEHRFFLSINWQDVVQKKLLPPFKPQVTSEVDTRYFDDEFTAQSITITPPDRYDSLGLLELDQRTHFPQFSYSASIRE

Dmax at 1 µM (AKT1): 56%
Dmax at 1 µM (AKT2): 0%
IC50 (H1975): 0.554 ± 0.213 µM
IC50 (H1975OR): 0.136 ± 0.0165 µM
IC50 (PC-9): 0.466 ± 0.0241 µM
IC50 (A431): 0.155 ± 0.0075 µM
IC50 (HCC827): 0.549 ± 0.247 µM
IC50 (H1299): 2.17 ± 0.419 µM
Dmax at 1 µM (AKT3): 75.4%
SMILES: COc1cc(N2CCN(CCCCCCCCCCCCNC(=O)CC34CC5CC(CC(C5)C3)C4)CC2)ccc1Nc1ncc2c(C)cc(=O)n(-c3cccc(NC(=O)C(C)(C)C)c3)c2n1 [ZX-HYT-12]

Dmax at 1 µM (AKT1): 46.4%
Dmax at 1 µM (AKT2): 45.9%
IC50 (H1975): 0.214 ± 0.013 µM
IC50 (H1975OR): 0.023 ± 0.007 µM
IC50 (PC-9): 0.0234 ± 0.00578 µM
IC50 (A431): 0.0225 ± 0.0035 µM
IC50 (HCC827): 0.186 ± 0.122 µM
IC50 (H1299): 2.1 ± 0.049 µM
Dmax at 1 µM (AKT3): 76.4%
SMILES: COc1cc(N2CCN(CCCCCCCCCCCCNC(=O)CC34CC5CC(CC(C5)C3)C4)CC2)ccc1Nc1ncc2c(C)cc(=O)n(-c3cccc(N)c3)c2n1 [ZX-HYT-17, 2-((3R, 5R, 7R)-adamantan-1-yl)-N-(12-(4-(4-(8-(3-aminophenyl)-5-methyl-7-oxy-7,8-dihydropyridino [2,3-d]pyrimidin-2-yl)amino)-3-methoxyphenyl)piperazin-1-yl) dodecyl) acetamide]

Dmax at 1 µM (AKT1): 0%
Dmax at 1 µM (AKT2): 0%
IC50 (H1975): 2.29 µM
IC50 (H1975OR): 3.46 µM
IC50 (MDA-MB-231): < 0.001 µM
IC50 (MDA-MB-453): > 10 µM
IC50 (BT-549): 0.00421 µM
IC50 (Bel-7402): 0.041 µM
Dmax at 1 µM (AKT3): 28%
SMILES: COc1cc(N2CCN(CCCCCCCCCCCCNC(=O)CC34CC5CC(CC(C5)C3)C4)CC2)ccc1Nc1ncc2c(C)cc(=O)n(-c3cccc(NCC4CC4)c3)c2n1 [ZX-HYT-19, 2-((3R, 5R, 7R)-adamantan-1-yl)-N-(12-(4-(4-(8-(3-((cyclopropylmethyl)amino)phenyl)-5-methyl-7-oxy-7,8-dihydropyridino [2,3-d]pyrimidin-2-yl)amino)-3-methoxyphenyl)piperazin-1-yl) dodecyl) acetamide]

IC50 (MDA-MB-231): 0.155 µM
IC50 (MDA-MB-453): > 10 µM
IC50 (BT-549): > 10 µM
IC50 (Bel-7402): > 10 µM
IC50 (Huh7): 0.632 µM
IC50 (HCC1937): > 10 µM
IC50 (A549): 0.668 µM
IC50 (HCT116): 0.0119 µM
IC50 (K562): 0.0293 µM
IC50 (MIAPACA-2): 0.00864 µM
IC50 (PANC-1): 0.0137 µM
IC50 (BXPC-3): 0.0421 µM
SMILES: COc1cc(N2CCN(C(=O)CC34CC5CC(CC(C5)C3)C4)CC2)ccc1Nc1ncc2c(C)cc(=O)n(-c3cccc(NC(=O)C4CC4)c3)c2n1 [ZX-HYT-50, N-(3-(2-((4-(4-(2-((3R, 5R, 7R)-adamantan-1-yl)acetyl)piperazin-1-yl)-2-methoxyphenyl)amino)-5-methyl-7-oxypyridino [2,3-d]pyrimidin-8 (7H)-yl)phenyl) cyclopropane formamide]

IC50 (MDA-MB-231): 0.0152 µM
IC50 (MDA-MB-453): > 10 µM
IC50 (BT-549): 0.141 µM
IC50 (Bel-7402): 0.37 µM
IC50 (HCC1937): 4 µM
SMILES: COc1cc(N2CCN(C(=O)NC34CC5CC(CC(C5)C3)C4)CC2)ccc1Nc1ncc2c(C)cc(=O)n(-c3cccc(NC(=O)C4CC4)c3)c2n1 [ZX-HYT-64, N-((3S, 5S, 7S)-adamantan-1-yl)-4-(4-((8-(3-(cyclopropaneformamido)phenyl)-5-methyl-7-oxy-7,8-dihydropyridino [2,3-d]pyrimidin-2-yl)amino)-3-methoxyphenyl) piperazin-1-formamide]

IC50 (BT-549): 0.376 µM
IC50 (Huh7): > 10 µM
SMILES: COc1nc(N2CCN(C(=O)CC34CC5CC(CC(C5)C3)C4)CC2)ccc1Nc1ncc2c(C)cc(=O)n(-c3cccc(NC(=O)C4CC4)c3)c2n1 [ZX-HYT-67, N-(3-(2-(6-(4-(2-((3R, 5R, 7R)-adamantan-1-yl)acetyl)piperazin-1-yl)-2-methoxypyridin-3-yl))amino)-5-methyl-7-oxypyridino [2,3-d] pyrimidin-8 (7H)-yl) phenyl) cyclopropane formamide]

IC50 (BT-549): 0.0386 µM
IC50 (Huh7): > 10 µM
SMILES: COc1nc(N2CCN(C(=O)NC34CC5CC(CC(C5)C3)C4)CC2)ccc1Nc1ncc2c(C)cc(=O)n(-c3cccc(NC(=O)C4CC4)c3)c2n1 [ZX-HYT-68, N-((3S, 5S, 7S)-adamantan-1-yl)-4-(5-((8-(3-(cyclopropaneformamido)phenyl)-5-methyl-7-oxy-7,8-dihydropyridino [2,3-d]pyrimidin-2-yl)amino)-6-methoxypyridin-2-yl) piperazin-1-formamide]

IC50 (BT-549): 3 µM
IC50 (Huh7): > 10 µM
SMILES: COc1nc(N2CCN(C(=O)C34CC5CC(CC(C5)C3)C4)CC2)ccc1Nc1ncc2c(C)cc(=O)n(-c3cccc(NC(=O)C4CC4)c3)c2n1 [ZX-HYT-69, N-(3-(2-((6-(4-((3R, 5R, 7R)-adamantan-1-carbonyl)piperazin-1-yl)-2-methoxypyridin-3-yl)amino)-5-methyl-7-oxypyridino [2,3-d]pyrimidin-8 (7H)-yl)phenyl) cyclopropane formamide]

IC50 (BT-549): 1.02 µM
IC50 (Huh7): > 10 µM
SMILES: COc1cc(N2CCN(C(=O)CC34CC5CC(CC(C5)C3)C4)CC2)ncc1Nc1ncc2c(C)cc(=O)n(-c3cccc(NC(=O)C4CC4)c3)c2n1 [ZX-HYT-70, N-(3-(2-((6-(4-(2-((3R, 5R, 7R)-adamantan-1-yl)acetyl)piperazin-1-yl)-4-methoxypyridin-3-yl))amino)-5-methyl-7-oxypyridino [2,3-d]pyrimidin-8 (7H)-yl) phenyl) cyclopropane formamide]

IC50 (BT-549): 1.25 µM
IC50 (Huh7): > 10 µM
SMILES: COc1cc(N2CCN(C(=O)NC34CC5CC(CC(C5)C3)C4)CC2)ncc1Nc1ncc2c(C)cc(=O)n(-c3cccc(NC(=O)C4CC4)c3)c2n1 [ZX-HYT-71, N-((3S, 5S, 7S)-adamantan-1-yl)-4-(5-((8-(3-(cyclopropaneformamido)phenyl)-5-methyl-7-oxy-7,8-dihydropyridino [2,3-d]pyrimidin-2-yl)amino)-4-methoxypyridin-2-yl) piperazin-1-formamide]

IC50 (BT-549): 0.626 µM
IC50 (Huh7): 3 µM
SMILES: COc1cc(N2CCN(C(=O)C34CC5CC(CC(C5)C3)C4)CC2)ncc1Nc1ncc2c(C)cc(=O)n(-c3cccc(NC(=O)C4CC4)c3)c2n1 [ZX-HYT-72, N-(3-(2-((6-(4-((3R, 5R, 7R)-adamantan-1-carbonyl)piperazin-1-yl)-4-methoxypyridin-3-yl)amino)-5-methyl-7-oxypyridino [2,3-d]pyrimidin-8 (7H)-yl)phenyl) cyclopropane formamide]

IC50 (BT-549): 0.0267 µM
IC50 (Huh7): 0.12 µM
SMILES: COc1cc(N2CCC(C(=O)NCC34CC5CC(CC(C5)C3)C4)CC2)ccc1Nc1ncc2c(C)cc(=O)n(-c3cccc(NC(=O)C4CC4)c3)c2n1 [ZX-HYT-89, N-(((3R, 5R, 7R)-adamantan-1-yl)methyl)-1-(4-((8-(3-(cyclopropaneformamido)phenyl)-5-methyl-7-oxy-7,8-dihydropyridino [2,3-d]pyrimidin-2-yl)amino)-3-methoxyphenyl) piperidin-4-formamide]

IC50 (BT-549): 0.937 µM
IC50 (Huh7): 3 µM
SMILES: COc1cc(N2CC3(CN(C(=O)CC45CC6CC(CC(C6)C4)C5)C3)C2)ccc1Nc1ncc2c(C)cc(=O)n(-c3cccc(NC(=O)C4CC4)c3)c2n1 [ZX-HYT-91, N-(3-(2-((4-(6-(2-((3R,5R,7R)-adamantan-1-yl)acetyl)-2,6-diazospira [3.3]hept-2-yl))-2-methoxyphenyl)amino)-5-methyl-7-oxypyridino [2,3-d]pyrimidin-8 (7H)-yl) phenyl) cyclopropane formamide]
